Results reported in ChEMBL document CHEMBL5131427, “Targeted Discovery of Amantamide B, an Ion Channel Modulating Nonapeptide from a South China Sea Oscillatoria Cyanobacterium” (J Nat Prod, 2022).
The source made the active and inactive calls. The rule behind the calls is not given here. Square brackets hold non-standard residues; d marks the D form. Peptide text beside a SMILES is read from it. * marks the point of attachment. dNMeF = CN[C@H](Cc1ccccc1)C(=O)O; NMeL = CN[C@@H](CC(C)C)C(=O)O; dNMeV = CN[C@@H](C(=O)O)C(C)C; Butyryl = CCCC(=O)*

What was measured:
K562 = assay: Cytotoxicity against human K562 cells measured after 72 hrs by MTT assay; format: functional, cell-based; details: K562, 72 h
CCRF-CEM = assay: Cytotoxicity against human CCRF-CEM cells measured after 72 hrs by MTT assay; format: functional, cell-based
U-937 = assay: Cytotoxicity against human U-937 cells measured after 72 hrs by MTT assay; format: functional, cell-based; details: U-937, 72 h
[1] = system: Primary neocortical neuron; assay: Suppression of spontaneous calcium oscillation frequency in Swiss-Webster mouse primary neocortical neuron at 10 uM incubated for 45 min by Fluo-4 dye based; format: functional, cell-based
[2] = Cytotoxicity against Swiss-Webster mouse primary neocortical neuron at 10 uM incubated for 45 min by multi minute duration test; format: toxicity, cell-based; details: 0.75 h

| SMILES | IC50 (K562) [µM] | IC50 (CCRF-CEM) [µM] | IC50 (U-937) [µM] | Activity [1] | Activity [2] |
| --- | --- | --- | --- | --- | --- |
| CCCC(=O)N(C)[C@H](C(=O)N(C)[C@@H](CC(C)C)C(=O)N[C@@H](CC(C)C)C(=O)N1CCC[C@H]1C(=O)N(C)[C@@H](C(=O)N[C@H](C(=O)NCC(=O)N(C)[C@H](Cc1ccccc1)C(=O)N1CCC[C@H]1C(=O)OC)[C@@H](C)CC)C(C)C)C(C)C | 21 | 5.6 | 7.3 | Active | Non-Toxic |
| CCCC(=O)N[C@H](C(=O)N(C)[C@@H](CC(C)C)C(=O)N[C@@H](CC(C)C)C(=O)N1CCC[C@H]1C(=O)N(C)[C@@H](C(=O)N[C@H](C(=O)NCC(=O)N(C)[C@H](Cc1ccccc1)C(=O)N1CCC[C@H]1C(=O)OC)[C@@H](C)CC)C(C)C)C(C)C (Butyryl-V[NMeL]LP[dNMeV]IG[dNMeF]P-OMe) | > 25 | 8.3 | 6.1 | Active | Non-Toxic |
| Nc1cc(F)ccc1NC(=O)c1ccc(CNC(=O)/C=C/c2cccnc2)cc1 [TUCIDINOSTAT] | 8.3 | 1 | 3.3 | – | – |
